# Like-named read-outs stand apart in the source and are kept apart here.
# Legend:
# [1] = target: T1, GSK3a (GST-full length GSK3a) (Homo sapiens, UniProt P49840); experiment: GSK3a TR-FRET kinase inhibition assay; format: biochemical
# T1 construct: GST-full length GSK3a [SignalChem G08-10G]; purchased SignalChem G08-10G
# Description: (§1) TR-FRET assay was performed in a white, 384 well, low volume, flat bottom plate (Grenier). After a 30 minute preincubation in assay buffer with the indicated concentration of compound, the kinase activity was initiated by the addition of the substrates. 1 nM GSK3a (GST-full length GSK3a [SignalChem G08-10G]) or 1 nM GSK3b (GST-full length GSK3b: [SignalChem G08-9G]) were then incubated at ambient temperature for 100 minutes in 10 μl of 50 mM Tris, pH 7.5, 20 mM MgCl2, 0.05 mM DTT, 100 μg/ml BSA and 1% DMSO, with 200 nM biotinylated peptide substrate (biotinylated and S645 phosphorylated glycogen synthase 631-650) and ATP (e.g., at 2 μM, 4 μM, 10 μM, 100 μM, or 1 mM). The kinase activity was quenched with 2 μl of 250 mM EDTA. A 10 μl volume of 40 nM Strepavidin-d2, 2 nM […] antibody in TR-FRET Detection Buffer (Invitrogen) was then added. After 60 min at room temperature the plate was read on Envision plate reader using Ex: 340 nm, Em: 615 nm and […]. The normalized 665/615 Signal ratio versus log compound concentration was analyzed by XLFIT to yield IC50 values.
# [2] = target: T2, GSK3b (GST-full length GSK3b) (Homo sapiens, UniProt P49841); experiment: GSK3b TR-FRET kinase inhibition assay; format: biochemical
# T2 construct: GST-full length GSK3b: [SignalChem G08-9G]; purchased SignalChem G08-9G
# Description: as §1
# [3] = 1 mM ATP, Table 3, read-out: GSK3a TR-FRET 1 mM ATP Average IC50
# [4] = 1 mM ATP, Table 3, read-out: GSK3b TR-FRET 1 mM ATP Average IC50
# [5] = 4 μM ATP, read-out: GSK3α TR-FRET 4 μM ATP GMean IC50
# [6] = 2 μM ATP, read-out: GSK3β TR-FRET 2 μM ATP GMean IC50
# [7] = 1 mM ATP, Table 5, read-out: GSK3α TR-FRET 1 mM ATP Average IC50
# [8] = 1 mM ATP, Table 5, read-out: GSK3β TR-FRET 1 mM ATP Average IC50
# T2 sequence (P49841 whole entry): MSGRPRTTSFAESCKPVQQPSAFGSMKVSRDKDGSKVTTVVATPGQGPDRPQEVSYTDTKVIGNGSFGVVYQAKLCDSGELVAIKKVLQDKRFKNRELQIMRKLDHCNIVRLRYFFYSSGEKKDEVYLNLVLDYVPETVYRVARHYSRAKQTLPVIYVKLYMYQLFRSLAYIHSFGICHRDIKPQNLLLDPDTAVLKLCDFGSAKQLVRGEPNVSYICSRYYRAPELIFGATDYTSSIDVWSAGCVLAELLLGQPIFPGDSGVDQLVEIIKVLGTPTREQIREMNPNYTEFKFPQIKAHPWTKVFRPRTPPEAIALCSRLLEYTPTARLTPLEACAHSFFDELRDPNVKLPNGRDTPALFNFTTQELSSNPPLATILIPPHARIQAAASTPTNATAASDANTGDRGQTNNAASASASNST
# T1 sequence (P49840 whole entry): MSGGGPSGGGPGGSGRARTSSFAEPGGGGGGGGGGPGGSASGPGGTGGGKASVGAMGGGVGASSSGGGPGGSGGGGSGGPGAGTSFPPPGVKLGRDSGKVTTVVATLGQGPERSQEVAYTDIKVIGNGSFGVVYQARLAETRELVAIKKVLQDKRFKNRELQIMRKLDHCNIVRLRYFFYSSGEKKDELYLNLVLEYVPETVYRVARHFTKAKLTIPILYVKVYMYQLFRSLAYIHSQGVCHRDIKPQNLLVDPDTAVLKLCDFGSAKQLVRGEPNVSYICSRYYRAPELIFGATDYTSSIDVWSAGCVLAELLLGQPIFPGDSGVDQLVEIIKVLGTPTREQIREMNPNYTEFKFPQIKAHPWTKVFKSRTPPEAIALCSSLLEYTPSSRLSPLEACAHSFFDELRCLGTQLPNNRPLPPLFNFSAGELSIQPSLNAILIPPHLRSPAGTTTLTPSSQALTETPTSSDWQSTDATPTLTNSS
"IC50 [1, 3] [µM]","IC50 [2, 4] [µM]","IC50 [1, 7] [µM]","IC50 [2, 8] [µM]",Compound,other results
0.1 to 1,0.1 to 1,–,–,"CC1(C)CC(=O)C2=C(C1)Nc1ncc(F)c(C(F)(F)F)c1C2(C)c1ccccc1 (single isomer, unassigned) [Compound 135A]",–
–,–,–,–,"CCC1(c2ccccc2)C2=C(CC(C)(C)NC2=O)Nc2ncccc21 (single isomer, unassigned) [Compound 1002B]","IC50 [1, 5]: 1 to 5 µM; IC50 [2, 6]: 1 to 5 µM"
–,–,≤ 0.1,0.1 to 1,"CC1(C)CC2=C(C(=O)N1)C(C)(c1cccc(S(C)(=O)=O)c1)c1cc(F)cnc1N2 (single isomer, unassigned) [638A]",–
–,–,–,–,"CCC1(c2cccc(-c3cc(C)nn3C)c2)C2=C(CC(C)(C)CC2=O)Nc2ncc(F)cc21 (single isomer, unassigned) [Compound 1033B]","IC50 [1, 5]: ≤ 0.1 µM; IC50 [2, 6]: ≤ 0.1 µM"
–,–,5 to 20,5 to 20,"CC1(C)CC2=C(C(=O)[C@H]1F)[C@](C)(c1ccccc1)c1c(ncc(F)c1C#N)N2 (single isomer, unassigned) [Compound 616D]",–
–,–,0.1 to 1,0.1 to 1,"CC(C)Oc1cccc(C2(C)C3=C(CC(C)(C)CC3=O)Nc3ncc(C(F)F)c(C#N)c32)c1 (single isomer, unassigned) [650B]",–
–,–,–,–,"CCC1(c2cccc(-c3cn(C)nc3C)c2)C2=C(CC(C)(C)CC2=O)Nc2ncc(F)cc21 (single isomer, unassigned) [Compound 1032A]","IC50 [1, 5]: ≤ 0.1 µM; IC50 [2, 6]: 0.1 to 1 µM"
–,–,5 to 20,1 to 5,"Cn1ncc2c3c(ncc21)NC1=C(C(=O)CC(C)(C)C1)C3(C)c1ccccc1 (single isomer, unassigned) [609B]",–
–,–,–,5 to 20,"C=Cc1cnc2c(c1Br)C(C)(c1ccccc1)C1=C(CC(C)(C)CC1=O)N2 (single isomer, unassigned) [640A]",–
–,–,0.1 to 1,0.1 to 1,"Cc1cnc2c(c1C#N)C(C)(c1ccccc1)C1=C(CC(C)(C)CC1=O)N2 (single isomer, unassigned) [603B]",–
5 to 20,1 to 5,–,–,"CC1(C)CC(=O)C2=C(C1)Nc1nccc(CC(F)(F)F)c1C2(C)c1ccccc1 (single isomer, unassigned) [Compound 132B]",–
–,5 to 20,–,–,"CC1(C)CC(=O)C2=C(C1)Nc1ncc3c(c1C2(C)c1ccccc1)CCC3 (single isomer, unassigned) [Compound 118A]",–
1 to 5,0.1 to 1,–,–,"CC(C)n1cncc1-c1cccc(C2(C)C3=C(CC(C)(C)CC3=O)Nc3ncc(C(F)(F)F)cc32)c1 (single isomer, unassigned) [Compound 171B]",–
–,–,5 to 20,5 to 20,"CC1(C)CC(=O)C2=C(C1)Nc1ncc(F)c(C#N)c1C2(C)c1cccc(C(F)F)c1 (single isomer, unassigned) [634A]",–
–,–,5 to 20,1 to 5,"COc1cnc2c(c1C1CC1)C(C)(c1ccccc1)C1=C(CC(C)(C)CC1=O)N2 (single isomer, unassigned) [626B]",–
5 to 20,5 to 20,–,–,"CC1(C)CC(=O)C2=C(C1)Nc1ncc(C(C)(C)C)cc1C2(C)c1ccccc1 (single isomer, unassigned) [Compound 124B]",–
–,–,5 to 20,5 to 20,"Cc1cnc2c(c1C#N)C(C)(c1ccccc1)C1=C(CC(C)(C)CC1=O)N2 (single isomer, unassigned) [603A]",–
1 to 5,1 to 5,–,–,"CC1(C)CC(=O)C2=C(C1)Nc1ncc(C#N)cc1C2(C)c1ccccc1 (single isomer, unassigned) [Compound 109A]",–
5 to 20,5 to 20,–,–,"CC1(C)CC(=O)C2=C(C1)Nc1ncc(C(F)(F)F)c(F)c1C2(C)c1ccccc1 (single isomer, unassigned) [Compound 136A]",–
–,–,–,–,"CCC1(c2ccccc2)C2=C(CC(C)(C)CC2=O)Nc2ncc(F)cc21 (single isomer, unassigned) [114 A]","IC50 [1, 5]: ≤ 0.1 µM; IC50 ([1]; 1 mM ATP, Table 4, read-out: GSK3α TR-FRET 1 mM ATP GMean IC50): 0.1 to 1 µM; IC50 [2, 6]: ≤ 0.1 µM; IC50 ([2]; 1 mM ATP, Table 4, read-out: GSK3β TR-FRET 1 mM ATP GMean IC50): 1 to 5 µM"
1 to 5,0.1 to 1,–,–,"COc1cncc(F)c1-c1cccc(C2(C)C3=C(CC(C)(C)CC3=O)Nc3ncc(C(F)(F)F)cc32)c1 (single isomer, unassigned) [Compound 174B]",–
–,–,–,–,"CCC1(c2cccc(-c3ccncc3OC)c2)C2=C(CC(C)(C)CC2=O)Nc2ncccc21 (single isomer, unassigned) [Compound 1028B]","IC50 [1, 5]: ≤ 0.1 µM; IC50 [2, 6]: ≤ 0.1 µM"
0.1 to 1,0.1 to 1,–,–,"CC1(C)CC(=O)C2=C(C1)Nc1ncc(F)c(C3CC3)c1C2(C)c1ccccc1 (single isomer, unassigned) [Compound 125A]",–

"IC50 [1, 3] [µM]","IC50 [2, 4] [µM]","IC50 [1, 7] [µM]","IC50 [2, 8] [µM]",Compound,other results
–,–,5 to 20,–,"CC1(C)CC(=O)C2=C(C1)Nc1ncc(F)cc1C2(C)c1cccc(C(F)F)c1 (single isomer, unassigned) [623A]",–
–,–,–,–,"CCC1(c2cccc(-c3cc(C)ncc3C)c2)C2=C(CC(C)(C)CC2=O)Nc2ncccc21 (single isomer, unassigned) [Compound 1027A]","IC50 [1, 5]: > 5 µM; IC50 [2, 6]: > 5 µM"
0.1 to 1,0.1 to 1,–,–,"C=Cc1ccnc2c1C(C)(c1ccccc1)C1=C(CC(C)(C)CC1=O)N2 (single isomer, unassigned) [Compound 111A]","IC50 ([1]; 100 μM ATP, read-out: GSK3a 100 μM ATP Average IC50): ≤ 0.1 µM; IC50 ([2]; 100 μM ATP, read-out: GSK3b 100 μM ATP Average IC50): ≤ 0.1 µM"
–,–,–,–,"CCC1(c2ccccc2)C2=C(CC3(CCC3)CC2=O)Nc2ncccc21 (single isomer, unassigned) [110 A]","IC50 [1, 5]: ≤ 0.1 µM; IC50 [2, 6]: ≤ 0.1 µM"
5 to 20,1 to 5,–,–,"CC1(C)CC(=O)C2=C(C1)Nc1ncccc1C2(C)c1cccc(-c2ccncc2OCC(F)F)c1 (single isomer, unassigned) [Compound 162A]",–
5 to 20,1 to 5,–,–,"Cc1nn(C)c(C)c1-c1cccc(C2(C)C3=C(CC(C)(C)CC3=O)Nc3ncc(C(F)(F)F)cc32)c1 (single isomer, unassigned) [Compound 170B]",–
–,–,0.1 to 1,0.1 to 1,"CC1(C)CC2=C(C(=O)[C@@H]1F)[C@](C)(c1ccccc1)c1c(ncc(F)c1C#N)N2 (single isomer, unassigned) [Compound 616B]",–
–,–,5 to 20,5 to 20,"CC1(C)CC(=O)C2=C(C1)Nc1ncc3ccccc3c1C2(C)c1ccccc1 (single isomer, unassigned) [606A]",–
–,–,1 to 5,1 to 5,"CC1(C)CC2=C(C(=O)N1)C(C)(c1ccccc1)c1cc(C(F)(F)F)cnc1N2 (single isomer, unassigned) [625A]",–
≤ 0.1,≤ 0.1,–,–,"CC1(C)CC(=O)C2=C(C1)Nc1ncc(F)c(C3CC3)c1C2(C)c1cccc(S(C)(=O)=O)c1 (single isomer, unassigned) [Compound 153A]",–
–,–,5 to 20,–,"CC1(C)CC2=C(C(=O)N1)C(C)(c1ccccc1)c1cc(C(F)(F)F)cnc1N2 (single isomer, unassigned) [625B]",–
–,–,–,5 to 20,"CC(C)Oc1cccc(C2(C)C3=C(CC(C)(C)CC3=O)Nc3ncc(F)cc32)c1 (single isomer, unassigned) [629A]",–
5 to 20,–,–,–,"CC1(C)CC(=O)C2=C(C1)Nc1ncc(F)c(F)c1C2(C)c1ccccc1 (single isomer, unassigned) [Compound 116A]",–
5 to 20,–,–,–,"CC1(C)CC(=O)C2=C(C1)Nc1nccc(C#N)c1C2(C)c1ccccc1 (single isomer, unassigned) [Compound 108B]",–
–,–,5 to 20,–,"Cc1c(C2(C)C3=C(CC(C)(C)CC3=O)Nc3ncc(F)cc32)cccc1S(C)(=O)=O (single isomer, unassigned) [643B]",–
–,5 to 20,–,–,"CC1(C)CC(=O)C2=C(C1)Nc1nccc(F)c1C2(C)c1ccccc1 (single isomer, unassigned) [Compound 105A]",–
–,5 to 20,–,–,"CC1(C)CC(=O)C2=C(C1)Nc1ncc(F)cc1C2(C)c1ccccc1 (single isomer, unassigned) [Compound 107A]",–
–,–,–,5 to 20,"CC(=O)c1cnc2c(c1C#N)C(C)(c1ccccc1)C1=C(CC(C)(C)CC1=O)N2 (single isomer, unassigned) [621B]",–
–,–,5 to 20,–,"CC1(C)CC2=C(C(=O)N1)C(C)(c1cccc(S(C)(=O)=O)c1)c1cccnc1N2 (single isomer, unassigned) [630B]",–
–,–,–,5 to 20,"CC(C)c1cnc2c(c1C#N)C(C)(c1ccccc1)C1=C(CC(C)(C)CC1=O)N2 (single isomer, unassigned) [622A]",–
–,–,–,5 to 20,"COc1cnc2c(c1C#N)C(C)(c1ccccc1)C1=C(CC(C)(C)CC1=O)N2 (single isomer, unassigned) [612A]",–
–,–,–,5 to 20,"COc1cnc2c(c1)C(C)(c1ccccc1)C1=C(CC(C)(C)CC1=O)N2 (single isomer, unassigned) [602B]",–

# Reference: patent US20260103465A1, “GLYCOGEN SYNTHASE KINASE 3 INHIBITORS AND USES THEREOF” (The Broad Institute, Inc., priority 2023, published 2026)
